Reference: the kinase profiling compilation of Christmann-Franck et al. (2016)

How the values were obtained:
Experiment in all cases: radiometric filter-binding kinase assay
CSNK2A1 (human) = CSNK2A1 (human) (UniProt P68400)
[1] = tested on: SGK1 (human), O00141 [S422D]
IKBKE (human) = IKBKE (human) (UniProt Q14164)
IKBKB (human) = IKBKB (human) (UniProt O14920)
PIM1 (human) = PIM1 (human) (UniProt P11309)
[2] = tested on: AKT1 (human), P31749 [S473D]
ROCK2 (rat) = details: accession and sequence are those of the human protein
PIM2 (human) = PIM2 (human) (UniProt Q9P1W9)
EPHB3 (human) = EPHB3 (human) (UniProt P54753)
RPS6KA3 KD1 KD2 (human) = RPS6KA3 KD1 KD2 (human) (UniProt P51812)
Sequence of RPS6KA3 KD1 KD2 (human) (P51812 whole entry, looked up): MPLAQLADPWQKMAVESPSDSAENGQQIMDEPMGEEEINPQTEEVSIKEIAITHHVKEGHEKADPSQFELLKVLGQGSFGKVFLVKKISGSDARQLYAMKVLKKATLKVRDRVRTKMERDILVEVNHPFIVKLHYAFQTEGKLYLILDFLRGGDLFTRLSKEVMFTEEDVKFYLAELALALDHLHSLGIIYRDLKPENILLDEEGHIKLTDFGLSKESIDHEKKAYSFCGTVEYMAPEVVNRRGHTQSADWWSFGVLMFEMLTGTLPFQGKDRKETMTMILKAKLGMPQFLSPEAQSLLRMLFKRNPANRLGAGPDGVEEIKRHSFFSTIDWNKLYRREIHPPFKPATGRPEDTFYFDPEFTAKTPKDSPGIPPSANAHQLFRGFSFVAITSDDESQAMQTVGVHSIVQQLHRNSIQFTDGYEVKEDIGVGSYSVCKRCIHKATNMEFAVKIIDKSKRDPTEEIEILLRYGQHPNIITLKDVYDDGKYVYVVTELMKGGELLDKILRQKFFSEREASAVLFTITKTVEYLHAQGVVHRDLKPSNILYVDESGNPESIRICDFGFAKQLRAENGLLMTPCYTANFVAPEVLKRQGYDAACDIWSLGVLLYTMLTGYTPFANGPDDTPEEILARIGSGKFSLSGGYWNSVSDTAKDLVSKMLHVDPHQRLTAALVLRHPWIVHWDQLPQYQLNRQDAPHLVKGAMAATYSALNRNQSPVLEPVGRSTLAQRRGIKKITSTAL

PAK4 (human) = PAK4 (human) (UniProt O96013)
MAPK12 (human) = MAPK12 (human) (UniProt P53778)
MAPK11 (human) = MAPK11 (human) (UniProt Q15759)
Sequence of MAPK11 (human) (Q15759 whole entry, looked up): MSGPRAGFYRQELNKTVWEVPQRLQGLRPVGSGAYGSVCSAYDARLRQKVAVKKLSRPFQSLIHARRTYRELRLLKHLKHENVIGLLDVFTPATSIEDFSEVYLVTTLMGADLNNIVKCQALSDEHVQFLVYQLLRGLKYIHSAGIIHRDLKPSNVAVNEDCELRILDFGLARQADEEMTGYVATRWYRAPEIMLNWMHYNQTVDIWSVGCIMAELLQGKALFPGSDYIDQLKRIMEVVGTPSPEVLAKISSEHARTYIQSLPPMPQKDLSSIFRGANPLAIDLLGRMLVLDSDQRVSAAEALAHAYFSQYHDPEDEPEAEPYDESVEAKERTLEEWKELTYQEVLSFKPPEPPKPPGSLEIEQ

STK3 (human) = STK3 (human) (UniProt Q13188)
MKNK2 (human) = MKNK2 (human) (UniProt Q9HBH9)
Sequence of MKNK2 (human) (Q9HBH9 whole entry, looked up): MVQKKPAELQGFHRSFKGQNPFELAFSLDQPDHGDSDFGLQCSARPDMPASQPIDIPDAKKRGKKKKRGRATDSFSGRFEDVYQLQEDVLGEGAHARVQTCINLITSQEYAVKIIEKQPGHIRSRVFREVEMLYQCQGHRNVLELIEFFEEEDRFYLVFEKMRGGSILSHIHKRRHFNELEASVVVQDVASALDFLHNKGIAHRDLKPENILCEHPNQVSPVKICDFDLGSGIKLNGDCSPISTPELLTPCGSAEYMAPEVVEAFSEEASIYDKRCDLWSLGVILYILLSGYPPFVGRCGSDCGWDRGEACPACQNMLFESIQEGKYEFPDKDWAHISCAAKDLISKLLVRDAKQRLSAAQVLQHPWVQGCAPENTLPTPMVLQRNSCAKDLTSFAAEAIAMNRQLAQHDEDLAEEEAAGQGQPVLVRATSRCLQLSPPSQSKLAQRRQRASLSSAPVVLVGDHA

MAPKAPK5 (human) = MAPKAPK5 (human) (UniProt Q8IW41)
Sequence of MAPKAPK5 (human) (Q8IW41 whole entry, looked up): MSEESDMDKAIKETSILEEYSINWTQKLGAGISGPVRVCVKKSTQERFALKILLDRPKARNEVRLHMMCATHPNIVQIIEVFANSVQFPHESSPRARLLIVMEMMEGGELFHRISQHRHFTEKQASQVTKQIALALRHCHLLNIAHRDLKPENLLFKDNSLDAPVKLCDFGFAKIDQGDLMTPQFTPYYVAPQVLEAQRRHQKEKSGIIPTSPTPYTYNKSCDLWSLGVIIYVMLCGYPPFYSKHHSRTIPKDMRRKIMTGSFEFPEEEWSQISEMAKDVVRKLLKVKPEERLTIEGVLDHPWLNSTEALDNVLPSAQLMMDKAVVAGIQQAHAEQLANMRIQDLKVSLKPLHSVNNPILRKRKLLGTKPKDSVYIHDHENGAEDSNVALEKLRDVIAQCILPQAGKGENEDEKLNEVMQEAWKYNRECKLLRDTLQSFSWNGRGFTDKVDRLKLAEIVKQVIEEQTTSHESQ

PLK1 (human) = PLK1 (human) (UniProt P53350)
MAPK3 (human) = MAPK3 (human) (UniProt P27361)
Sequence of MAPK3 (human) (P27361 whole entry, looked up): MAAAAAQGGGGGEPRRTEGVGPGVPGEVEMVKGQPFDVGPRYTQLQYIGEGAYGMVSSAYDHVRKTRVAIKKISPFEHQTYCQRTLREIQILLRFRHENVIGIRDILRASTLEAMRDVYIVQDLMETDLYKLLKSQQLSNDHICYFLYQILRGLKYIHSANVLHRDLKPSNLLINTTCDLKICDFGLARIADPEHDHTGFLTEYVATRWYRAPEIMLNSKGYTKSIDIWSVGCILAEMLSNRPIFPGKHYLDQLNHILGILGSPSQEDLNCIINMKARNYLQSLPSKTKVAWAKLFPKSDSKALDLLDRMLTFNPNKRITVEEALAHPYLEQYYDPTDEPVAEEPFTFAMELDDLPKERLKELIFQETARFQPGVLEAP

MAPK8 (human) = MAPK8 (human) (UniProt P45983)
TBK1 (human) = TBK1 (human) (UniProt Q9UHD2)
Sequence of TBK1 (human) (Q9UHD2 whole entry, looked up): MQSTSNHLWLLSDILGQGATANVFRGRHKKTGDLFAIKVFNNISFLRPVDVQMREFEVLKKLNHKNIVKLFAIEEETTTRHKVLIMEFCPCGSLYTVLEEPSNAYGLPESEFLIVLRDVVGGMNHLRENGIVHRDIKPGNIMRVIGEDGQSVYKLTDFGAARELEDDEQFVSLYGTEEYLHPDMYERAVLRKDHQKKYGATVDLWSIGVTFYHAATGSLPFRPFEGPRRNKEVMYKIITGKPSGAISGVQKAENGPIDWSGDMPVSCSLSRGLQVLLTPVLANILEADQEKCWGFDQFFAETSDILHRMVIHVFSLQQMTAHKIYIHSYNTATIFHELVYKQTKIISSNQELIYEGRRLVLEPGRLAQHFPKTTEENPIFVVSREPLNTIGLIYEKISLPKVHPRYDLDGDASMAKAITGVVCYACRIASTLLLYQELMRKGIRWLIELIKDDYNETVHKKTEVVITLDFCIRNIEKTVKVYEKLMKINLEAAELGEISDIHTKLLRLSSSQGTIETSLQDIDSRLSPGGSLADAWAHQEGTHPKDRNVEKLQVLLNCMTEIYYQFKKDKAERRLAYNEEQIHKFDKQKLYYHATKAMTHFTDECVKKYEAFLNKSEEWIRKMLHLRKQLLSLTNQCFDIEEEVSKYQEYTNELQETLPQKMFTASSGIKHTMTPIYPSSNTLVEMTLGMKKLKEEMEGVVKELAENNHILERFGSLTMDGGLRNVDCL

DYRK3 (human) = DYRK3 (human) (UniProt O43781)
BRSK2 (human) = BRSK2 (human) (UniProt Q8IWQ3)
DYRK1A (human) = DYRK1A (human) (UniProt Q13627)
MAPK14 (human) = MAPK14 (human) (UniProt Q16539)
Sequence of MAPK14 (human) (Q16539 whole entry, looked up): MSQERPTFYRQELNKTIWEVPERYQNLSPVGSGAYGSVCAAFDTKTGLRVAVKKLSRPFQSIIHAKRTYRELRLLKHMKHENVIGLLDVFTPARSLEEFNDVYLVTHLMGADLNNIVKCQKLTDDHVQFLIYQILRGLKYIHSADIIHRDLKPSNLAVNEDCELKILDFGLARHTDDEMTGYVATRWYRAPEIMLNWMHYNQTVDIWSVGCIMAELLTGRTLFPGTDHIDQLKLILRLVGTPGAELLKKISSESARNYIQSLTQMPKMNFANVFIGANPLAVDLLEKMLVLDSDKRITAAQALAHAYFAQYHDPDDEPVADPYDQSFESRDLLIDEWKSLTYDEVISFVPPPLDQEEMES

PIM3 (human) = PIM3 (human) (UniProt Q86V86)
[3] = tested on: RPS6KB1 (human), P23443 [T412E]
RPS6KA1 KD1 KD2 (human) = RPS6KA1 KD1 KD2 (human) (UniProt Q15418)

Sequence of CSNK2A1 (human) (P68400 whole entry, looked up): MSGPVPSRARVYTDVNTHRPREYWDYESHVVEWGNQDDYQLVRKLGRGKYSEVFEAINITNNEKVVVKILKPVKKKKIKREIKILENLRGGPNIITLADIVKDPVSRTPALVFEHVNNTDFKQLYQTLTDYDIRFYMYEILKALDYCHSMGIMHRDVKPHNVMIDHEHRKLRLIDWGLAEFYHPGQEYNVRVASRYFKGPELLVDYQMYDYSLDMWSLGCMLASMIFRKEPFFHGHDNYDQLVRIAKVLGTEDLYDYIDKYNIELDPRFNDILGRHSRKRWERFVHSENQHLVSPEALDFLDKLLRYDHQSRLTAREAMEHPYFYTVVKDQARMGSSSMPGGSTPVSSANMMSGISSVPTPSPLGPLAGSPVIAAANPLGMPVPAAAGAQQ
Sequence of IKBKE (human) (Q14164 whole entry, looked up): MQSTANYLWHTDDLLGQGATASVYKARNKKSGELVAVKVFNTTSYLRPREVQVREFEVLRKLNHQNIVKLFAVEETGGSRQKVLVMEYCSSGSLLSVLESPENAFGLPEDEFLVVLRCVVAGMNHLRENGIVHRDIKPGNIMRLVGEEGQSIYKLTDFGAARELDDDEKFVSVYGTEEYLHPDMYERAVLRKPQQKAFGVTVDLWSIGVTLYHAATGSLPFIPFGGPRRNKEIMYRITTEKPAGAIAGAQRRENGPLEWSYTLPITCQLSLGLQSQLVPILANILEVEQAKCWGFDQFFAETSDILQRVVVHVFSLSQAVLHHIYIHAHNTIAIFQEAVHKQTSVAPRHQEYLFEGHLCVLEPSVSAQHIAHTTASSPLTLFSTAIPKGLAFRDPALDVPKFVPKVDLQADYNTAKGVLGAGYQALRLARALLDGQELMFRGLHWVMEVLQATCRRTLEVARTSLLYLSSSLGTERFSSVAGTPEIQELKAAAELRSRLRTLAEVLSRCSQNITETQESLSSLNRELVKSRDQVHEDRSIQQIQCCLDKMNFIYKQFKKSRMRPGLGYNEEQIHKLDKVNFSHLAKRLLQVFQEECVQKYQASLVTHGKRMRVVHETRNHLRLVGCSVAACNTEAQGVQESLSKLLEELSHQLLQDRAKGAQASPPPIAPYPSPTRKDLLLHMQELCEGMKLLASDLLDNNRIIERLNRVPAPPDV

Compound: CCc1cncnc1N1CCN(Cc2nc3cc(C(F)(F)F)ccc3[nH]2)CC1
- residual activity (CSNK2A1 (human); compound 0.1 µM): 96%
- residual activity (CSNK2A1 (human); compound 1.0 µM): 92%
- residual activity (CSNK2A1 (human); compound 10.0 µM): 83%
- residual activity ([1]; compound 0.1 µM): 106%
- residual activity ([1]; compound 1.0 µM): 74%
- residual activity ([1]; compound 10.0 µM): 65%
- residual activity (IKBKE (human); compound 0.1 µM): 103%
- residual activity (IKBKE (human); compound 1.0 µM): 99%
- residual activity (IKBKE (human); compound 10.0 µM): 96%
- residual activity (IKBKB (human); compound 0.1 µM): 104%
- residual activity (IKBKB (human); compound 1.0 µM): 119%
- residual activity (IKBKB (human); compound 10.0 µM): 102%
- residual activity (PIM1 (human); compound 0.1 µM): 88%
- residual activity (PIM1 (human); compound 1.0 µM): 90%
- residual activity (PIM1 (human); compound 10.0 µM): 78%
- residual activity ([2]; compound 0.1 µM): 87%
- residual activity ([2]; compound 1.0 µM): 69%
- residual activity ([2]; compound 10.0 µM): 52%
- residual activity (ROCK2 (rat); compound 0.1 µM): 98%
- residual activity (ROCK2 (rat); compound 1.0 µM): 91%
- residual activity (ROCK2 (rat); compound 10.0 µM): 58%
- residual activity (PIM2 (human); compound 0.1 µM): 90%
- residual activity (PIM2 (human); compound 1.0 µM): 90%
- residual activity (PIM2 (human); compound 10.0 µM): 100%
- residual activity (EPHB3 (human); compound 0.1 µM): 132%
- residual activity (EPHB3 (human); compound 1.0 µM): 139%
- residual activity (EPHB3 (human); compound 10.0 µM): 101%
- residual activity (RPS6KA3 KD1 KD2 (human); compound 0.1 µM): 86%
- residual activity (RPS6KA3 KD1 KD2 (human); compound 1.0 µM): 67%
- residual activity (RPS6KA3 KD1 KD2 (human); compound 10.0 µM): 25%
- residual activity (PAK4 (human); compound 0.1 µM): 93%
- residual activity (PAK4 (human); compound 1.0 µM): 88%
- residual activity (PAK4 (human); compound 10.0 µM): 88%
- residual activity (MAPK12 (human); compound 0.1 µM): 107%
- residual activity (MAPK12 (human); compound 1.0 µM): 102%
- residual activity (MAPK12 (human); compound 10.0 µM): 103%
- residual activity (MAPK11 (human); compound 0.1 µM): 88%
- residual activity (MAPK11 (human); compound 1.0 µM): 89%
- residual activity (MAPK11 (human); compound 10.0 µM): 97%
- residual activity (STK3 (human); compound 0.1 µM): 95%
- residual activity (STK3 (human); compound 1.0 µM): 85%
- residual activity (STK3 (human); compound 10.0 µM): 77%
- residual activity (MKNK2 (human); compound 0.1 µM): 92%
- residual activity (MKNK2 (human); compound 1.0 µM): 93%
- residual activity (MKNK2 (human); compound 10.0 µM): 79%
- residual activity (MAPKAPK5 (human); compound 0.1 µM): 114%
- residual activity (MAPKAPK5 (human); compound 1.0 µM): 97%
- residual activity (MAPKAPK5 (human); compound 10.0 µM): 87%
- residual activity (PLK1 (human); compound 0.1 µM): 98%
- residual activity (PLK1 (human); compound 1.0 µM): 87%
- residual activity (PLK1 (human); compound 10.0 µM): 88%
- residual activity (MAPK3 (human); compound 0.1 µM): 93%
- residual activity (MAPK3 (human); compound 1.0 µM): 85%
- residual activity (MAPK8 (human); compound 1.0 µM): 107%
- residual activity (MAPK8 (human); compound 10.0 µM): 95%
- residual activity (TBK1 (human); compound 0.1 µM): 108%
- residual activity (TBK1 (human); compound 1.0 µM): 105%
- residual activity (TBK1 (human); compound 10.0 µM): 97%
- residual activity (DYRK3 (human); compound 0.1 µM): 106%
- residual activity (DYRK3 (human); compound 1.0 µM): 92%
- residual activity (DYRK3 (human); compound 10.0 µM): 83%
- residual activity (BRSK2 (human); compound 0.1 µM): 88%
- residual activity (BRSK2 (human); compound 1.0 µM): 84%
- residual activity (BRSK2 (human); compound 10.0 µM): 83%
- residual activity (DYRK1A (human); compound 0.1 µM): 99%
- residual activity (DYRK1A (human); compound 1.0 µM): 94%
- residual activity (DYRK1A (human); compound 10.0 µM): 85%
- residual activity (MAPK14 (human); compound 0.1 µM): 86%
- residual activity (MAPK14 (human); compound 1.0 µM): 79%
- residual activity (MAPK14 (human); compound 10.0 µM): 86%
- residual activity (PIM3 (human); compound 0.1 µM): 93%
- residual activity (PIM3 (human); compound 1.0 µM): 88%
- residual activity (PIM3 (human); compound 10.0 µM): 83%
- residual activity ([3]; compound 0.1 µM): 39%
- residual activity ([3]; compound 1.0 µM): 16%
- residual activity ([3]; compound 10.0 µM): 6%
- residual activity (RPS6KA1 KD1 KD2 (human); compound 0.1 µM): 46%
- residual activity (RPS6KA1 KD1 KD2 (human); compound 1.0 µM): 33%
- residual activity (RPS6KA1 KD1 KD2 (human); compound 10.0 µM): 0%

Compound: O=C1NC(=S)N[C@@H]1Cc1c[nH]c2ccccc12
- residual activity (CSNK2A1 (human); compound 1.0 µM): 83%
- residual activity (CSNK2A1 (human); compound 10.0 µM): 93%
- residual activity ([1]; compound 1.0 µM): 87%
- residual activity ([1]; compound 10.0 µM): 96%
- residual activity (IKBKE (human); compound 1.0 µM): 84%
- residual activity (IKBKE (human); compound 10.0 µM): 93%
- residual activity (PIM1 (human); compound 1.0 µM): 89%
- residual activity (PIM1 (human); compound 10.0 µM): 93%
- residual activity ([2]; compound 1.0 µM): 87%
- residual activity ([2]; compound 10.0 µM): 90%
- residual activity (ROCK2 (rat); compound 1.0 µM): 83%
- residual activity (ROCK2 (rat); compound 10.0 µM): 96%
- residual activity (PIM2 (human); compound 1.0 µM): 97%
- residual activity (PIM2 (human); compound 10.0 µM): 86%
- residual activity (EPHB3 (human); compound 1.0 µM): 81%
- residual activity (RPS6KA3 KD1 KD2 (human); compound 1.0 µM): 78%
- residual activity (RPS6KA3 KD1 KD2 (human); compound 10.0 µM): 100%
- residual activity (PAK4 (human); compound 1.0 µM): 103%
- residual activity (PAK4 (human); compound 10.0 µM): 106%
- residual activity (MAPK12 (human); compound 1.0 µM): 103%
- residual activity (MAPK12 (human); compound 10.0 µM): 96%
- residual activity (MAPK11 (human); compound 1.0 µM): 94%
- residual activity (MAPK11 (human); compound 10.0 µM): 95%
- residual activity (STK3 (human); compound 1.0 µM): 99%
- residual activity (STK3 (human); compound 10.0 µM): 102%
- residual activity (MKNK2 (human); compound 1.0 µM): 92%
- residual activity (MKNK2 (human); compound 10.0 µM): 97%
- residual activity (MAPKAPK5 (human); compound 1.0 µM): 89%
- residual activity (MAPKAPK5 (human); compound 10.0 µM): 100%
- residual activity (PLK1 (human); compound 1.0 µM): 97%
- residual activity (PLK1 (human); compound 10.0 µM): 93%
- residual activity (MAPK3 (human); compound 1.0 µM): 107%
- residual activity (MAPK3 (human); compound 10.0 µM): 82%
- residual activity (MAPK8 (human); compound 1.0 µM): 83%
- residual activity (MAPK8 (human); compound 10.0 µM): 107%
- residual activity (TBK1 (human); compound 1.0 µM): 106%
- residual activity (TBK1 (human); compound 10.0 µM): 94%
- residual activity (DYRK3 (human); compound 1.0 µM): 78%
- residual activity (DYRK3 (human); compound 10.0 µM): 96%
- residual activity (BRSK2 (human); compound 1.0 µM): 79%
- residual activity (BRSK2 (human); compound 10.0 µM): 94%
- residual activity (DYRK1A (human); compound 1.0 µM): 85%
- residual activity (DYRK1A (human); compound 10.0 µM): 92%
- residual activity (MAPK14 (human); compound 1.0 µM): 76%
- residual activity (MAPK14 (human); compound 10.0 µM): 82%
- residual activity (PIM3 (human); compound 1.0 µM): 90%
- residual activity (PIM3 (human); compound 10.0 µM): 95%
- residual activity ([3]; compound 1.0 µM): 88%
- residual activity ([3]; compound 10.0 µM): 100%
- residual activity (RPS6KA1 KD1 KD2 (human); compound 1.0 µM): 80%
- residual activity (RPS6KA1 KD1 KD2 (human); compound 10.0 µM): 91%
